Assay results as given in ChEMBL document CHEMBL1201862, “PubChem BioAssay data set” (2004).
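These data come from cells grown in 96-well plates and exposed to compound for 48 hours at five concentrations. At the GI50, growth is halved.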 The source made the active and inactive calls. Cut-off read from the data, not from the text of the source: active = GI50 up to about 1.1 µM and inactive = higher.

What was measured:
Assay in all cases: NCI tumour cell line growth inhibition, 48 h
786-0 = tested on: 786-0
CAKI-1 = tested on: CAKI-1
CCRF-CEM = tested on: CCRF-CEM
COLO 205 = tested on: COLO 205
HL-60 = tested on: HL-60
HOP-92 = tested on: HOP-92
KM12 = tested on: KM12
OVCAR-5 = tested on: OVCAR-5
RPMI-8226 = tested on: RPMI-8226
SN12C = tested on: SN12C
EKVX = tested on: EKVX
NCI-H522 = tested on: NCI-H522
SK-MEL-5 = tested on: SK-MEL-5
SK-OV-3 = tested on: SK-OV-3
SW-620 = tested on: SW-620
TK-10 = tested on: TK-10

Measured: GI50

COc1ccc2oc(-c3ccncc3)cc(=O)c2c1
inactive: 786-0 > 100 µM | CAKI-1 33.2 µM | CCRF-CEM 81.1 µM | COLO 205 > 100 µM | HL-60 > 100 µM | HOP-92 37.5 µM | KM12 84.5 µM | OVCAR-5 > 100 µM | RPMI-8226 > 100 µM | SN12C 38.7 µM

COC1(OC)C2(Cl)C(Cl)=C(Cl)C1(Cl)C1C=CC=CC12 (stereo not given)
inactive: 786-0 > 100 µM | CAKI-1 45.7 µM | CCRF-CEM > 10 µM | COLO 205 69.8 µM | EKVX > 100 µM | HL-60 55.8 µM | HOP-92 40.2 µM | KM12 > 100 µM | NCI-H522 23.8 µM | OVCAR-5 > 100 µM | RPMI-8226 39.7 µM | SK-MEL-5 53.2 µM | SK-OV-3 > 100 µM | SN12C 75.3 µM | SW-620 95.9 µM | TK-10 > 100 µM

N#Cc1ccc(/C=C(/C(=O)c2ccccc2)c2ccccc2)cc1
inactive: 786-0 10.9 µM | CAKI-1 14.2 µM | CCRF-CEM 3.19 µM | COLO 205 19.6 µM | EKVX 18.8 µM | HL-60 2.67 µM | HOP-92 14 µM | KM12 3.24 µM | NCI-H522 8.41 µM | OVCAR-5 18 µM | RPMI-8226 2.59 µM | SK-MEL-5 12.8 µM | SK-OV-3 20.5 µM | SN12C 9.66 µM | SW-620 2.64 µM | TK-10 24 µM

O=C(NCCc1ccccc1)C1C(=O)C(=O)N(CCc2ccccc2)C1=O (stereo not given)
inactive: 786-0 > 100 µM | CAKI-1 > 100 µM | CCRF-CEM > 100 µM | EKVX > 100 µM | HL-60 > 100 µM | HOP-92 > 100 µM | KM12 > 100 µM | NCI-H522 > 100 µM | RPMI-8226 > 100 µM | SK-OV-3 48.4 µM | SN12C > 100 µM | SW-620 > 100 µM | TK-10 > 100 µM

CCNC(=O)CCN(C(=O)O)S(=O)(=O)c1ccc(NC(=O)c2ccccc2)cc1
inactive: 786-0 10.3 µM | CAKI-1 > 100 µM | CCRF-CEM 59.4 µM | COLO 205 > 100 µM | EKVX > 100 µM | HL-60 > 100 µM | HOP-92 > 100 µM | KM12 > 100 µM | NCI-H522 > 100 µM | OVCAR-5 > 100 µM | RPMI-8226 > 100 µM | SK-MEL-5 > 100 µM | SK-OV-3 > 100 µM | SN12C > 100 µM | SW-620 15.5 µM | TK-10 > 100 µM

Nc1c(-c2nc3ccccc3[nH]2)sc(=S)n1-c1ccc(Cl)cc1
inactive: 786-0 19.9 µM | CAKI-1 33 µM | CCRF-CEM 41.1 µM | COLO 205 35.3 µM | EKVX 35.8 µM | HL-60 > 100 µM | KM12 28.6 µM | NCI-H522 22.4 µM | OVCAR-5 > 100 µM | RPMI-8226 28.1 µM | SK-MEL-5 26 µM | SK-OV-3 34.3 µM | SN12C 21.4 µM | SW-620 39.5 µM | TK-10 30 µM

O=C(c1cccs1)N(C(=S)N1CCN(c2ccccc2)CC1)C1CCCCC1
inactive: 786-0 > 100 µM | CAKI-1 > 100 µM | CCRF-CEM > 100 µM | COLO 205 > 100 µM | HL-60 22.1 µM | HOP-92 > 100 µM | KM12 > 100 µM | NCI-H522 > 100 µM | OVCAR-5 > 100 µM | RPMI-8226 > 100 µM | SK-MEL-5 > 100 µM | SK-OV-3 > 100 µM | SN12C > 100 µM | SW-620 > 100 µM | TK-10 > 100 µM

COc1cccc(NC(=O)CC(=O)N2N=C(N(CCC#N)c3ccccc3C)CC2c2ccccc2)c1 (stereo not given)
inactive: 786-0 > 100 µM | CAKI-1 > 100 µM | CCRF-CEM > 100 µM | COLO 205 > 100 µM | EKVX > 100 µM | HL-60 > 100 µM | HOP-92 > 100 µM | KM12 > 100 µM | NCI-H522 > 100 µM | OVCAR-5 > 100 µM | RPMI-8226 > 100 µM | SK-MEL-5 > 100 µM | SK-OV-3 > 100 µM | SN12C > 100 µM | SW-620 > 100 µM

COc1ccc(OC(C)C(=O)O)c2c(=O)ccccc12 (stereo not given)
inactive: 786-0 > 100 µM | CCRF-CEM > 100 µM | COLO 205 > 100 µM | EKVX > 100 µM | HL-60 > 100 µM | KM12 > 100 µM | NCI-H522 > 100 µM | OVCAR-5 > 100 µM | RPMI-8226 > 100 µM | SK-MEL-5 > 100 µM | SK-OV-3 > 100 µM | SN12C > 100 µM | SW-620 > 100 µM | TK-10 > 100 µM

CC(=O)N(C)C=C1C(=O)N(C)C(=O)N(C)C1=O
inactive: 786-0 > 100 µM | CAKI-1 > 100 µM | CCRF-CEM > 100 µM | EKVX > 100 µM | HL-60 > 100 µM | HOP-92 > 100 µM | KM12 > 100 µM | OVCAR-5 > 100 µM | RPMI-8226 > 100 µM | SK-MEL-5 > 100 µM | SN12C > 100 µM | SW-620 > 100 µM | TK-10 > 100 µM

COc1ccc2c(c1O)C(=O)C(CCC(=O)O)CC2 (stereo not given)
inactive: 786-0 > 100 µM | CAKI-1 > 100 µM | CCRF-CEM > 100 µM | COLO 205 > 100 µM | EKVX > 100 µM | HL-60 > 100 µM | HOP-92 > 100 µM | RPMI-8226 > 100 µM | SK-MEL-5 > 100 µM | SK-OV-3 > 100 µM | SN12C > 100 µM | SW-620 > 100 µM | TK-10 > 100 µM

O=C1c2ccccc2C(=O)c2c1ccc1c2N=C(c2ccc(Br)cc2)CC(c2cccc3ccccc23)N1 (stereo not given)
inactive: 786-0 > 100 µM | CAKI-1 > 100 µM | CCRF-CEM > 100 µM | COLO 205 > 100 µM | EKVX > 100 µM | HL-60 > 100 µM | KM12 > 100 µM | NCI-H522 > 100 µM | OVCAR-5 > 100 µM | RPMI-8226 83.6 µM | SK-MEL-5 > 100 µM | SK-OV-3 > 100 µM | SN12C > 100 µM | SW-620 > 100 µM | TK-10 > 100 µM

Cc1cccc(=O)c([O-])c1.Cc1cccc(=O)c([O-])c1.[Bi+3].[Cl-]
inactive: 786-0 13.7 µM | CAKI-1 15.5 µM | CCRF-CEM 2.18 µM | EKVX 15.9 µM | HL-60 3 µM | HOP-92 6.01 µM | KM12 11.6 µM | NCI-H522 2.03 µM | OVCAR-5 14.9 µM | RPMI-8226 3.42 µM | SK-MEL-5 11.3 µM | SK-OV-3 22.5 µM | SN12C 11.8 µM | SW-620 5.47 µM | TK-10 17.5 µM

NC(=O)c1ncn2c1NCC1OC2C(O)C1O (stereo not given)
inactive: 786-0 > 100 µM | CAKI-1 > 100 µM | CCRF-CEM > 100 µM | COLO 205 > 100 µM | EKVX > 100 µM | HL-60 > 100 µM | HOP-92 > 100 µM | KM12 > 100 µM | NCI-H522 > 100 µM | OVCAR-5 > 100 µM | SK-MEL-5 > 100 µM | SK-OV-3 > 100 µM | SN12C > 100 µM | SW-620 > 100 µM | TK-10 > 100 µM

COC(=O)C1=C(O)c2cc(OC)c(OC)c(OC)c2[C@H](c2cc(OC)c(OC)c(OC)c2)C1C(=O)OC (stereo not given in full)
inactive: 786-0 34 µM | CAKI-1 > 100 µM | CCRF-CEM 32.8 µM | COLO 205 15.8 µM | EKVX 55.5 µM | HL-60 16.8 µM | HOP-92 9.89 µM | KM12 21.9 µM | NCI-H522 13.5 µM | OVCAR-5 > 100 µM | RPMI-8226 28.2 µM | SK-MEL-5 12.3 µM | SK-OV-3 35 µM | SN12C 50.8 µM | SW-620 29 µM | TK-10 > 100 µM

C[C@@H](N[C@H]1CCC[C@@H]1O)c1ccccc1.C[C@@H](N[C@H]1CCC[C@H]1O)c1ccccc1
inactive: 786-0 70.1 µM | CCRF-CEM 89.9 µM | COLO 205 75.7 µM | EKVX > 100 µM | HL-60 43.6 µM | HOP-92 30.7 µM | KM12 41.4 µM | NCI-H522 > 100 µM | RPMI-8226 53.7 µM | SK-MEL-5 57.7 µM | SK-OV-3 > 100 µM | SN12C > 100 µM | SW-620 61.4 µM | TK-10 90.4 µM

CC(C)CCCC(C)[C@H]1CCC2[C@@H]3CCC4Nc5nocc5C[C@]4(C)C3CC[C@@]21C (stereo not given in full)
inactive: 786-0 11.4 µM | CAKI-1 14.4 µM | CCRF-CEM 7.23 µM | COLO 205 6.14 µM | EKVX 16.1 µM | HL-60 9.02 µM | KM12 19.9 µM | NCI-H522 3.15 µM | OVCAR-5 > 10 µM | RPMI-8226 20.3 µM | SK-MEL-5 14.6 µM | SK-OV-3 19.4 µM | SN12C 18.1 µM | SW-620 15.1 µM | TK-10 8.07 µM

COc1ccc(OC)c(CC(C)N)c1 (stereo not given)
inactive: 786-0 > 100 µM | CAKI-1 > 100 µM | CCRF-CEM > 100 µM | COLO 205 > 100 µM | EKVX > 100 µM | KM12 > 100 µM | NCI-H522 > 100 µM | RPMI-8226 > 100 µM | SK-MEL-5 > 100 µM | SK-OV-3 > 100 µM | SN12C > 100 µM | SW-620 > 100 µM | TK-10 > 100 µM

CCCc1ccc(NCc2cc(OC)c(OC)c(OC)c2)cc1
inactive: 786-0 22.4 µM | CCRF-CEM 17.8 µM | EKVX 61 µM | HOP-92 22.9 µM | KM12 23.1 µM | OVCAR-5 26.6 µM | RPMI-8226 12.7 µM | SK-MEL-5 15.5 µM | SK-OV-3 22.3 µM | SN12C 22.3 µM | TK-10 59.8 µM
